Source: patent publication US5245050A, “Derivatives of physiologically active substance ML-236B and process for production thereof” (Tobishi Yakuhin Kogyo Kabushiki Kaisha, priority 1988, dated 1993)

Molecular target: T1, HMG-CoA reductase (Rattus norvegicus, UniProt P51639)
T1 construct: 0.6 mg/ml of rat liver microsome fraction; from tissue; host or cells: rat liver (microsome fraction)
T1 sequence (P51639 1-887): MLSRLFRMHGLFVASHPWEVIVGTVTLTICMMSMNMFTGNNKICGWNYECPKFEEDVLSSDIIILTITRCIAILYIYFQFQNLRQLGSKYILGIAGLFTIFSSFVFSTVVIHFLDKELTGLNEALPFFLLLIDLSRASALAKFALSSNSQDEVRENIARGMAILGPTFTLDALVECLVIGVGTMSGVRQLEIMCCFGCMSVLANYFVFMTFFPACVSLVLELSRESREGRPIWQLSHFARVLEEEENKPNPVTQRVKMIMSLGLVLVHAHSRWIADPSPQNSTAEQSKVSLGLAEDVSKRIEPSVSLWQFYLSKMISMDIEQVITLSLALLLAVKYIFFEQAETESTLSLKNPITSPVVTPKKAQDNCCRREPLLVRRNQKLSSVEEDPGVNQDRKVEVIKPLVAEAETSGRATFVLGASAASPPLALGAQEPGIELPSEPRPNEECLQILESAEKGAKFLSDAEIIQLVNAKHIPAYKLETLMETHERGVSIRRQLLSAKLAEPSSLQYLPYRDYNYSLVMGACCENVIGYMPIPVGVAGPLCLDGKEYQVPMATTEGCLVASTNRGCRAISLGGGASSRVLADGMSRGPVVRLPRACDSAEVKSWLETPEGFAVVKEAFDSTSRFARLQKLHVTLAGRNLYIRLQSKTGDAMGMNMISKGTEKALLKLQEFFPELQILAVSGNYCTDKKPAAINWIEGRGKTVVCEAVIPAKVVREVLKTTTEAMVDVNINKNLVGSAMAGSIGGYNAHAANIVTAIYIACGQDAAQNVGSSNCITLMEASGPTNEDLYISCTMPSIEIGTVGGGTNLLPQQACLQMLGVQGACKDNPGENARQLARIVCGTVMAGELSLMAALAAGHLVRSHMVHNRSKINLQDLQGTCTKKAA
Test: HMG-CoA reductase inhibitory activity ([14C]HMG-CoA to [14C]mevalonic acid, rat liver microsome fraction)
Type: biochemical
Conditions: for remaining activity at 0.1 µg/mL: 0.1 μg/ml; for IC50: rat liver microsome fraction, 37° C., 30 minutes, read-out: I50 (amount of sample necessary to inhibit the HMG-CoA reductase activity to 50%) (converted); for remaining activity at 10 µg/mL: 10 μg/ml
Protocol: The HMG-CoA reductase activity can be determined by using [^14 C] HMG-CoA as a substrate and measuring the resulting [^14 C] mevalonic acid (Kuroda and Endo, Biochem Biophys Acta, 486, 70-81), as described in detail in the following.
A reaction mixture contains 100 mM of potassium phosphate buffer (pH 7.4), 10 mM of EDTA, 10 mM of dithiothreitol, 10 mM of NADPH, 0.11 mM of DL-[3-^14 C] HMG-CoA (4.5 mCi/mmol), and 0.6 mg/ml of rat liver microsome fraction. The final volume of reaction mixture is 50 μl including 1 μl of a methanol solution of a test sample. A reaction is started by adding the substrate HMG-CoA, continued at 37° C. for 30 minutes, and terminated by adding 10 μl of 2N hydrochloric acid solution To this reaction mixture is added 20 μl of 100 mM [5-^3 H] mevaronic acid (22.7 μCi/mmol), and the reaction is carried out at 37° C. for a further 15 minutes. Using 40 μl of this reaction mixture as a carrier, 5 μl of 200 mM mevaronic acid (lactone type) is spotted on a silica gel plate, and after development by benzene/acetone (1:1) mixture, a spot of mevaronic acid is peeled off and suspended in a liquid scintillator to measure the radio activity thereof. The inhibitory activity is expressed by an amount of a sample necessary to inhibit the HMG-CoA reductase activity to 50% (I50 value).

[1] = read-out: Enzyme activity (% relating to control)

remaining activity at 0.1 µg/mL [1] | remaining activity at 1 µg/mL (1 μg/ml, read-out: Enzyme activity (% relating to control)) | IC50 | remaining activity at 10 µg/mL [1] | SMILES
74% | 27% | 681 nM |  | CCC(C)C(=O)OC1CCC2C(F)(F)C23C=CC(C)C(CCC2CC(O)CC(=O)O2)C13 (stereo not drawn) [(1)]
63% |  | 544 nM | 7.6% | CCC(C)C(=O)OC1CCC2CC23C=CC(C)C(CCC2CC(O)CC(=O)O2)C13 (stereo not drawn) [(4)]
98% |  | > 2040 nM | 30% | CCC(C)C(=O)OC1CCC2C(Cl)(Cl)C23C=CC(C)C(CCC(O)CC(O)CC(N)=O)C13 (stereo not drawn) [(7)]
71% |  | 683 nM | 4.7% | CCC(C)C(=O)OC1CCC2C(Cl)C23C=CC(C)C(CCC2CC(O)CC(=O)O2)C13 (stereo not drawn) [Compound (6)]
